{"source": "patent US20070027127A1", "about": "“Treatment of inflammatory oral diseases with a combination of inhibitors of TNF-alpha and immunosuppressive agents” (priority 2000, published 2007)", "tested_on": "major RAS (recurrent aphthous stomatitis) mouth ulcers", "assay": "Clinical example: treatment of a human patient with longstanding major RAS", "assay_type": "in vivo", "procedure": "There follows a description of the successful treatment of a human patient according to the invention.\nThe patient was a healthy person who had longstanding major RAS. The ulcers were located throughout the patient's mouth and oropharynx. […] The patient, prior to this visit, had been treated with numerous forms of conventional therapy, including systemic steroids and other pharmaceutical agents. All treatments had failed.\nThe patient was treated according to the invention as follows. The patient was given PTX tablets (one 400 mg tablet per day), combined with a rinse of the topical steroid DECADRON®.", "data": [{"smiles": "CC(=O)CCCCn1c(=O)c2c(ncn2C)n(C)c1=O", "note": "[PTX, 3,7-Dihydro-3,7-dimethyl-1-(5-oxohexyl)-1H-purine-2,6-dione]", "values": [{"measurement": "Mouth ulcer status reported by the patient", "setting": "approximately six months after initial treatment with PTX tablets plus DECADRON® rinse, then topical DECADRON® rinse on individual lesions", "value": "completely without mouth ulcers for the first time in eight years"}, {"measurement": "Resolution of the patient's major lesions", "setting": "one patient, major RAS, PTX tablets (one 400 mg tablet per day) combined with a DECADRON® rinse, prior conventional therapies failed", "value": "completely resolved all of the patient's major lesions"}]}]}
